Results reported in the NIST ThermoML archive (doi:10.1016/j.jct.2011.12.030).

Conditions: Liquid, Vibrating tube method

CCOS(=O)(=O)[O-].CCn1cc[n+](C)c1 [1-ethyl-3-methylimidazolium ethyl sulfate]
mass density [kg/m3]
Conditions | 100 kPa | 1000 kPa | 10000 kPa | 20000 kPa | 40000 kPa | 60000 kPa | 80000 kPa | 100000 kPa | 120000 kPa
278.15 K | 1251.9 | 1252.2 | 1255.7 | 1259.5 | 1266.8 | 1273.7 | 1280.2 | 1286.5 | 1292.2
298.15 K | 1237 | 1237.3 | 1241 | 1245 | 1252.6 | 1259.7 | 1266.5 | 1273.1 | 1279.3
313.15 K | 1226.6 | 1227 | 1230.8 | 1235 | 1242.8 | 1250.3 | 1257.3 | 1264.1 | 1270.5
333.15 K | 1213 | 1213.4 | 1217.4 | 1221.7 | 1230 | 1237.8 | 1245.2 | 1252.3 | 1259.1
348.15 K | 1203.1 | 1203.6 | 1207.7 | 1212.3 | 1220.9 | 1228.9 | 1236.5 | 1243.8 | 1250.8
373.15 K | 1187.3 | 1187.3 | 1191.8 | 1196.6 | 1205.8 | 1214.2 | 1222.2 | 1229.7 | 1237
398.15 K | 1171.4 | 1171 | 1175.9 | 1181 | 1190.7 | 1199.7 | 1208.1 | 1216 | 1223.4

COCC[N+]1(C)CCCC1.O=S(=O)([N-]S(=O)(=O)C(F)(F)F)C(F)(F)F
mass density [kg/m3]
Conditions | 100 kPa | 1000 kPa | 10000 kPa | 20000 kPa | 40000 kPa | 60000 kPa | 80000 kPa | 100000 kPa | 120000 kPa
278.15 K | 1474.2 | 1474.9 | 1480.8 | 1487 | 1498.6 | 1509.5 | 1519.8 | 1529.3 | 1538.3
298.15 K | 1453.5 | 1454.1 | 1460.2 | 1466.9 | 1479.2 | 1490.6 | 1501.4 | 1511.4 | 1520.9
313.15 K | 1439.1 | 1440.1 | 1446.5 | 1453.5 | 1466.4 | 1478.4 | 1489.4 | 1499.8 | 1509.6
333.15 K | 1420.8 | 1421.6 | 1428.5 | 1435.9 | 1449.5 | 1462.2 | 1473.7 | 1484.6 | 1494.8
348.15 K | 1407.3 | 1408 | 1415.4 | 1423.2 | 1437.5 | 1450.5 | 1462.5 | 1473.6 | 1484.2
373.15 K | 1385.3 | 1385.7 | 1393.4 | 1401.8 | 1417.2 | 1430.9 | 1443.5 | 1455.2 | 1466.3
398.15 K | 1363.2 | 1363.3 | 1372 | 1381 | 1397.4 | 1412 | 1425.4 | 1437.9 | 1449.6
